The values that follow come from ChEMBL document CHEMBL2074508, “Functional characterization of the human multidrug transporter, ABCG2, expressed in insect cells” (Biochem Biophys Res Commun, 2001).

The first test has as its target T1, Broad substrate specificity ATP-binding cassette transporter ABCG2 (Homo sapiens, UniProt Q9UNQ0).
T1 sequence (Q9UNQ0 whole entry): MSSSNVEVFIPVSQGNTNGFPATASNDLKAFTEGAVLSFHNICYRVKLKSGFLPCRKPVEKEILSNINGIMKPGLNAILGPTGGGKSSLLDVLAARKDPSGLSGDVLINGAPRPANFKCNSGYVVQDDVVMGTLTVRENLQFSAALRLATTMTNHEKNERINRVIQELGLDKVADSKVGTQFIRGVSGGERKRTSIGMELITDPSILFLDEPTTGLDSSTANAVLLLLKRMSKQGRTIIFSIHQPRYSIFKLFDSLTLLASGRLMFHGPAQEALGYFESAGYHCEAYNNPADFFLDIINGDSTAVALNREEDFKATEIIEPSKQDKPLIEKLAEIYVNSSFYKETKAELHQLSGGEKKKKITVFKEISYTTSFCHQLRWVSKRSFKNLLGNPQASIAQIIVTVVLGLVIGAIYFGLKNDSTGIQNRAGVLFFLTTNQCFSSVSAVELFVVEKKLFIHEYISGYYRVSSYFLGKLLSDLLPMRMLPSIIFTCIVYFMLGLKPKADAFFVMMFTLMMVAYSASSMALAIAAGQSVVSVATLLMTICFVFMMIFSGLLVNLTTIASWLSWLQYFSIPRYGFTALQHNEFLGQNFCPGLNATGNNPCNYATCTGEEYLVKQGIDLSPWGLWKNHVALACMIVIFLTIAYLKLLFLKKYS
The test can be described thus: TP_TRANSPORTER: inhibition of ATPase in membrane vesicle from BCRP-expressing Sf9 cells. Type of test: functional, cell membranes.
Details: not given
As usually defined, the Ki is the equilibrium dissociation constant of an inhibitor or competing ligand from its target. As for `COc1ccc2c3c([nH]c2c1)[C@H](C=C(C)C)N1C(=O)[C@@H]2CCCN2C(=O)[C@@H]1C3` [FUMITREMORGIN], affinity was put at a Ki of 1.3 µM.

The target of another test is T1, Broad substrate specificity ATP-binding cassette transporter ABCG2. The test is described as follows: TP_TRANSPORTER: ATP hydrolysis in membrane vesicle from BCRP-expressing Sf9 cells. Format: functional, cell membranes. Particulars: read-out: Kact.
Consider `COc1cccc2c1C(=O)c1c(O)c3c(c(O)c1C2=O)C[C@@](O)(C(C)=O)C[C@@H]3O[C@H]1C[C@H](N)[C@H](O)[C@H](C)O1` [DAUNORUBICIN], for which the EC50 amounted to 2.5 µM. Still for that read-out and setting: as for `COc1cccc2c1C(=O)c1c(O)c3c(c(O)c1C2=O)C[C@@](O)(C(=O)CO)C[C@@H]3O[C@H]1C[C@H](N)[C@H](O)[C@H](C)O1` [DOXORUBICIN], the figure is 5 µM. For the molecule `O=C1c2c(O)ccc(O)c2C(=O)c2c(NCCNCCO)ccc(NCCNCCO)c21` [MITOXANTRONE], the EC50 is 7 µM.

For the molecule `COc1cc2nc(N3CCN(C(=O)c4ccco4)CC3)nc(N)c2cc1OC` [PRAZOSIN], the EC50 is 1 µM.

Regarding `COC(=O)c1ccccc1-c1c2ccc(=N)cc-2oc2cc(N)ccc12` [RHODAMINE123], the EC50 was 4.5 µM.
